Earlier results, collected in US12454539B2, “Controlled-delivery cromakalim prodrugs” (Qlaris Bio, Inc., priority 2019, dated 2025).

Key:
normotensive mouse model = conditions: once daily dosing
KATP channels = conditions: membrane patches from rabbit mesenteric arterial smooth muscle cells, in the presence of ATP
[1] = tested on: isolated rat mesenteric lymph vessels; conditions: increasing concentrations

solubility in water	SMILES	intraocular pressure (IOP) (normotensive mouse model)	increase of open-state probability (Popen) of single KATP channels (KATP channels)	contractions of lymph vessels [1]
more water soluble than levcromakalim	CC1(C)Oc2ccc(C#N)cc2[C@@H](N2CCCC2=O)[C@@H]1OP(=O)(O)O [CKLP1]	lower intraocular pressure	–	–
–	CC1(C)Oc2ccc(C#N)cc2C(N2CCCC2=O)C1O (stereo not shown) [Cromakalim, cromakalim]	–	more than 9 fold	abolished the contractions of the vessels
